# Patent US7632662B2, “Compounds, compositions and methods for producing antioxidants from carnitine” (priority 2002, dated 2009)
# Like-named read-outs stand apart in the source and are kept apart here.
# Key:
# [1] = test system: non-demented geriatric major depressive disorder (NDG-MDD) subjects; experiment: Twelve-week open clinical study of ALCAR in geriatric major depressive disorder: HDRS, CIRS, side effects; assay type: in vivo, human; conditions: for HDRS score: oral
# From the text: (§1) A twelve-week, open, clinical, ^31P MRSI study design was used to examine the possible effects of ALCAR on brain metabolism and depressive symptomatology in non-demented geriatric major depressive disorder (NDG-MDD). Two depressed, non-demented [Folstein Mini-Mental State Exam (MMSE)>24)] male subjects, were compared with six age, social-economic status, and medically matched non-demented controls (all male, mean age of 73.6±3.6 years, range 69.7-78.2 years). The two elderly depressed subjects completed baseline Structural Clinical Interview of DSM-IV (SCID) I/P version 2.0, HDRS (17 item), MMSE, UKU Side Effect Rating Scale (UKU), and Cumulative Illness Rating Scale (CIRS) to assess medical burden, baseline physical, ECG, and, laboratory tests for hematology, urine analysis, immunopathology, and blood chemistry. Follow-up visits for the depressed subjects were done every other week for 12 weeks. Efficacy (psychiatric evaluation) was assessed by changes in the HDRS which was performed at baseline and every other week for 12 weeks along with secondary measures (MMSE; CIRS; and UKU), whereas the CIRS was performed at baseline, 6, and 12 weeks. Physical examinations and EKGs were performed at baseline, 6, and 12 weeks. The baseline MR evaluation was scheduled and completed prior to the administration of ALCAR. Follow-up MR evaluations were at 6 and 12 weeks. Acetyl-L-carnitine was administered in the form of oral tablets containing 590 mg of acetyl-L-carnitine hydrochloride (500 mg acetyl-L-carnitine). The dosage regimen was fixed at three grams of acetyl-L-carnitine given two tablets three times a day for 12 weeks.
# The statistical analysis was done using the Statview (SAS Institute, Inc.) software package. The pearson t correlation test used to correlate between variables.
# [2] = test system: brain PME(s-τc) and PCr levels; experiment: 31P MRSI of brain metabolite levels in two depressed elderly subjects treated with ALCAR for 12 weeks; assay type: in vivo, human; conditions: for increase of prefrontal PCr levels with ALCAR treatment: prefrontal region
# From the text: Phosphorus magnetic resonance spectroscopic imaging (^31P MRSI) analysis of two depressed elderly subjects treated with ALCAR for 12 weeks are compared with those of six normal non-demented, non-depressed subjects.
# as §1
# ^31P MRSI acquisition—A custom built, doubly tuned transmit/receive volume head coil was used to acquire the ^1H MRI and 2D ^31P MRSI data on a GE Signa 1.5 T whole body MR imager. First, sets of axial and sagittal scout MR images were collected. […] A self-refocused spin echo pulse sequence with an effective flip range of 60° and an echo time of 2.5 ms, was used to acquire the ^31P MRSI (360 mm field of view, 30 mm slice thickness, 8×8 phase encoding steps [45×45×30 mm^3 nominal voxel dimensions], 2 s TR, 1024 data points, 4.0 kHz spectral bandwidth and 16 NEX).
# MRSI post-processing and quantification—To optimize the right and left voxel positions for the six regions, the 8×8 ^31P grid was shifted with respect to the anatomical MRI and a mild spatial apodization (i.e., Fermi window with 90% diameter and 5% transition width) was applied prior to the inverse Fourier transform. The remaining processing steps were 100% automated. A 5 Hz exponential apodization was applied and the PME, phosphodiester (PDE), PCr, α-, γ-, and β-ATP, and inorganic orthophosphate (Pi), were modeled in the time domain with exponentially damped sinusoids and by omitting the first 2.75 ms of the free induction decay (FID) using the Marquardt-Levenberg algorithm. This approach ensured that the PME and PDE resonances primarily reflected the freely mobile, short correlation time (s-τc), water soluble PME(s-τc) and PDE(s-τc) metabolites without the influence of relatively broad underlying signals within the PME and PDE spectral region. […]
# rat brain = experiment: Effect of ALCAR on in vitro 31P MRS brain metabolite and phospholipid levels under normoxia and brief hypoxia; assay type: in vivo, Fischer 344 rats; conditions: for PCr levels: non-significant; for Phosphatidylserine (PtdS) levels, change: p<0.01
# Protocol: FIG. 4 is a block diagram illustrating an effect of ALCAR on in vitro ^31P MRS α-GP and PCr levels under hypoxic (30 seconds) and normoxic conditions in Fischer 344 rats.
# FIG. 5 is a block diagram illustrating an effect of ALCAR on in vitro ^31P MRS phospholipid levels under hypoxic and normoxic conditions in Fischer 344 rats.
# The rat brain responds differentially to brief energetic stress (30 seconds of hypoxia) depending on the age of the animal. The effect of ALCAR (75 mg/kg animal weight injected intraperitoneally 1 hour before sacrificing the animal) on both normoxic rat brain and rat brain exposed to brief hypoxia (30 seconds) was investigated (FIGS. x and x). These studies were conducted on aged rats (30 months) to provide possible insights into human aged brain and MDD.
# brain PME levels = experiment: In vivo 31P MRSI in two young subjects with MDD; set-up: species or system human; conditions: 2 young MDD subjects; treatment with ALCAR
# From the text: As part of an ongoing ^31P-^1H MRSI study of never-medicated, first-episode schizophrenia subjects three ^31P MRSI spectra on 2 MDD subjects (1 person, 1 person, 24∀2.3 years) were obtained. The MDD spectral results are compared with those obtained from 13 controls (6 males; 3 white, 2 African-American, 1 Asian and 7 females; 4 white, 3 African-American; 21∀1.0 years). PME levels in the MDD subjects were increased by approximately 15% (p=0.13) while there were decreases in the levels of PDE (approx. −7%; p=0.08), PCr (approx. −5%, p=0.61), and β-ATP (approx. −3%, p=0.87) (FIG. 6). Treatment with ALCAR lowered PME levels in the MDD subjects.
# Aβ(1-40) peptide = molecular target: T1, Aβ(1-40) peptide (Homo sapiens, UniProt P05067); experiment: Acetylation of Aβ(1-40) peptide by ALCAR; assay type: biochemical
# T1 construct: the Aβ(1-40) peptide derived from the ubiquitous protein, amyloid precursor protein
# T1 sequence (P05067 672-711 limits assumed): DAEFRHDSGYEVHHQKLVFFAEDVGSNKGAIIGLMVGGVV
# [3] = test system: geriatric depressed subjects; conditions: cited from earlier work; for day 60 HDRS: 3.0 gm/day
# [4] = test system: canine model of complete, global cerebral ischemia and reperfusion; conditions: versus vehicle-treated control animals; p=0.0037; Rosenthal et al. 1992; cited from earlier work
smiles,measurement,setting,value
"CC(=O)O[C@H](CC(=O)[O-])C[N+](C)(C)C [ALCAR, acetyl-L-carnitine]",Side effects from ALCAR treatment,"[1]; both depressed subjects, 12 weeks, three grams per day",mild
same,laboratory exams and EKG,[1]; either depressed subject,No clinically significant abnormalities
same,Side effects from ALCAR treatment,[1]; subject #1,dry mouth
same,CIRS,"[1]; subject #1, 6 weeks, baseline 7",6
same,HDRS score,"[1]; subject #1, 6 weeks, baseline 15, three grams acetyl-L-carnitine per day",1
same,CIRS,"[1]; subject #1, 12 weeks, baseline 7",5
same,HDRS score,"[1]; subject #1, 12 weeks, baseline 15, three grams per day",0
same,Side effects from ALCAR treatment,[1]; subject #2,slight increase in perspiration
same,CIRS,"[1]; subject #2, 6 weeks, baseline 4",4
same,HDRS score,"[1]; subject #2, 6 weeks, baseline 20, three grams per day",17
same,CIRS,"[1]; subject #2, 12 weeks, baseline 4",2
same,HDRS score,"[1]; subject #2, 12 weeks, baseline 20, three grams per day",3
same,PME(s-τc) levels in the superior temporal regions,"[2]; after 12 weeks of ALCAR treatment, compared with normal subjects, p=0.05",elevated
same,"PCr levels in the prefrontal, basal ganglia and occipital regions","[2]; after 12 weeks of ALCAR treatment, compared with normal subjects, p=0.001, 0.022, 0.027",elevated
same,prefrontal PME(s-τc) levels,"[2]; baseline 1.5 to 2.0 SD higher than mean of controls, with ALCAR treatment",normalized
same,increase of prefrontal PCr levels with ALCAR treatment,[2]; first of the two depressed subjects (respectively),27%
same,increase of prefrontal PCr levels with ALCAR treatment,[2]; second of the two depressed subjects (respectively),31%
same,Cardiolipin levels,rat brain; ALCAR/hypoxia,non-significantly reduced
same,"α-GP levels, change compared with controls","rat brain; ALCAR/hypoxia (30 seconds), aged rats (30 months), 75 mg/kg i.p., p=0.01",approximately +80%
same,PCr levels,"rat brain; ALCAR/hypoxia, p=0.07",decrease
same,"Phosphatidylserine (PtdS) levels, change",rat brain; ALCAR/hypoxic,approx. −75%
same,Cardiolipin levels,rat brain; ALCAR/normoxia,unchanged
same,α-GP levels,"rat brain; ALCAR/normoxia, aged rats (30 months), 75 mg/kg intraperitoneally 1 hour before sacrifice",did not alter
same,PCr levels,rat brain; ALCAR/normoxia,increase
same,"Phosphatidylserine (PtdS) levels, change",rat brain; ALCAR/normoxia,approx. −50%
same,PME levels in the MDD subjects,brain PME levels,lowered
same,acetylation of the Aβ(1-40) peptide,Aβ(1-40) peptide,can acetylate lysine 28
same,day 60 HDRS,"[3]; Bella et al. 1990, baseline HDRS 22, placebo day 60 = 20",11
same,day 60 HDRS,"[3]; Fulgente et al. 1990, baseline HDRS 25, placebo day 60 = 22",12
same,HDRS,"[3]; Garzya et al. 1990, 1.5 gm/day, ages 70-80 years",significant beneficial effects
same,mean cortisol levels and 12 am and 4 pm cortisol levels,"[3]; Gecele et al. 1991, 2 gm/day, p<0.001, p<0.001, p<0.01",significant reduction
same,HDRS,"[3]; Gecele et al. 1991, 2 gm/day, p<0.001",significant improvement
same,HDRS scores,"[3]; Nasca et al. 1989, day 40 of treatment, baseline HDRS 44.9, p<0.001",significant improvement
same,side effects,"[3]; Tempesta et al. 1987, 2 gm/day",no reported ALCAR side effects
same,HDRS scores,"[3]; Tempesta et al. 1987, open label cross over, 2 gm/day, subjects over 70 years",highly effective
same,side effects,"[3]; Villardita et al. 1983, 1.5 gm/day, 40 days",no side effects
same,Hamilton Depressive Rating Scale (HDRS),"[3]; Villardita et al. 1983, 1.5 gm/day, day 40, baseline HDRS 26.3, p<0.001",significant improvement
same,tolerability,"[3]; randomized double-blind studies, even at the higher dosages (up to 3.0 gm/day)",well tolerated
same,neurological deficit scores,[4],significantly lower
